Test results as given in patent US9927444B2, “Bone marrow-derived hematopoietic progenitor cells and endothelial progenitor cells as prognostic indicators for cancer” (Cornell University, priority 2011, dated 2018).

Assays:
[1] = tested on: advanced malignancy refractory to standard therapy; conditions: phase I; cited from earlier work
[2] = tested on: breast cancer at high risk for relapse; assay: Clinical outcomes (relapse, progression-free survival), phase II TM trial; format: in vivo, human
Description: (§1) This phase II, open-label, single-arm study was conducted to assess patients with breast cancer at high risk for relapse. Patients were enrolled on an Institutional Review Board approved trial (NCT00195091, 0903-882, 0309006307) at Weill Cornell Medical College (WCMC) Iris Cantor Breast Cancer Center. Written informed consent was obtained prior to undergoing any study-specific procedures in accordance with the Declaration of Helsinki.
Patients underwent imaging of investigator's choice, CT of chest, abdomen, and pelvis or PET/CT every 6 months and as needed to assess for relapse, using Response Evaluation Criteria in Solid Tumors (RECIST).
(§2) PFS was analyzed using survival analysis techniques.

[3] = tested on: malignant mesothelioma; conditions: after adjuvant TM; doubling from 10; cited from earlier work
[4] = tested on: VEGFR2+ endothelial progenitor cells (EPCs); assay: Enumeration of circulating EPCs by flow cytometry, phase II TM trial; format: in vivo, human
Description: (§3) Ten to 20 mL of venous blood were collected in EDTA-containing tubes and processed within 12 hours. Peripheral blood mononuclear cells were isolated by Ficoll density-gradient centrifugation. To quantitate circulating EPCs, cells were stained with CD133-PE (Miltenyi Biotec, Auburn, Calif.), VEGFR2-APC (R&D Systems, Minneapolis, Minn.), and CD45-PerCP (BD Biosciences, Franklin Lakes, N.J.). To quantitate HPCs, cells were stained with CD34-FITC (BD Biosciences), VEGFR1-APC (R&D Systems), and CD45-PerCP (BD Biosciences). An aliquot of cells was also stained with the appropriate isotype controls (mouse anti-human IgG1k). Samples were analyzed using a FACSCalibur flow cytometer (Bectin Dickinson, San Jose, Calif.). Three hundred thousand events were collected in the nucleated cell gate (excludes debris and platelets). Data analysis was done using FlowJo software (FlowJo, Ashland, Oreg.). A series of consecutive gates were made to include and exclude acquired events to quantitate specific populations such as CD45^+, CD34^+, VEGFR1^+. The number of EPCs and HPCs per mL of blood was calculated as follows: HPC/mL=(# HPC events/# lymphocyte events)×absolute lymphocyte count (lymphocytes/mL). EPC/mL=(# EPC events/# lymphocyte events)×absolute lymphocyte count (lymphocytes/mL). HPCs were defined as CD45^+, CD34^+, VEGFR1^+ (FIGS. 5A-5C). […]
as §2

[5] = in vivo
Description: (§4) The National Cancer Institute—Common Toxicity Criteria for Adverse Events (CTCAE) version 3.0 were used for toxicity and adverse event reporting. In the event of grade 3/4 toxicity, dosing was held until recovery. Treatment was resumed at the investigator's discretion at 50% of the previous dose. […] In the event of grade 2 toxicity, the dose of TM was held until recovery and a new cycle could be initiated at 100%. If grade 2 toxicity recurred, dosing was held until recovery and the next cycle was resumed at 50%. All patients were available to be evaluated for toxicity.
(§5) The intent-to-treat (ITT) population consisted of all patients who received at least one dose of TM. […] The following outcomes were recorded: toxicity attributable to TM, time to progression of disease, number of circulating hemangiogenic progenitor cells, serum markers of angiogenesis. Descriptive statistics for demographic and angiogenic variables were calculated for all patients. […] All p-values were two-sided with statistical significance evaluated at the 0.05 alpha level. All analyses were performed in SPSS Version 18.0 (SPSS Inc., Chicago, Ill.).

[6] = reversible, managed with dose reductions; cited from earlier work
[7] = stored under argon; cited from earlier work
[8] = tested on: serum ceruloplasmin (Cp); assay: Serum ceruloplasmin (Cp) levels / copper depletion, phase II TM trial; format: in vivo, human
Description: as §1
TM was administered in two phases, induction and maintenance: A) Induction: Patients self-administered TM 180 mg by mouth daily in 4 divided doses until serum Cp levels decreased to a target range of 5-16 mg/dL. One month of TM therapy comprised 1 cycle. Cp levels were tested every 2 weeks for the first 4 weeks and then weekly until target Cp was reached. When Cp levels were within target range, patients were switched to the maintenance phase. B) Maintenance: TM 100 mg taken daily in divided doses. Patients were followed every 2 weeks for 4 weeks to ensure Cp levels were stable then every 4 weeks. Dose reductions in 20 mg increments were allowed to minimize toxicity. Dose increases in 20 mg increments were allowed every 2 weeks to keep Cp levels in target range. […] Patients brought completed medication logs to each visit. The duration of the trial was 2 years.
The ITT population consisted of 39 patients. […] Target for copper depletion was defined as Cp below 17 mg/dL. Of those who took at least one dose of TM, 59% […] of patients were effectively copper depleted and 15 patients (37.5%) were unable to be copper depleted. Mean Cp of copper depleted pts and non-copper depleted patients was 13.5 and 22.3 mg/dL, respectively (FIG. 1a). Patients spent a median of 78% of time (range 58 to 100%) within target Cp levels during the study . . . . […] 91% of triple-negative patients successfully copper depleted compared to the hormone-receptor subtypes (38-43%) and HER2-positive subtypes (40-67%) (FIG. 7B).

[9] = tested on: SDF1, VEGFR2, C-kit; assay: Plasma angiogenic factors and cytokine profiling, phase II TM trial; format: in vivo, human
Description: Plasma SDF-1 was detected by enzyme-linked immunosorbent assay (R&D Systems) according to manufacturer's protocol. Plasma levels of c-kit, VEGF, VEGFR1, VEGFR2, bFGF, and PIGF were detected by multiplex assay (Meso Scale Discovery, Gaithersburg, Md.) per manufacturer protocol.
as §2

[10] = tested on: advanced renal cell carcinoma; conditions: 13 patients; cited from earlier work
[11] = Safety and tolerability (CTCAE version 3.0), phase II TM trial
Description: as §4, §5

[12] = tested on: VEGFR1+ hematopoietic progenitor cells (HPCs); assay: Enumeration of circulating HPCs by flow cytometry, phase II TM trial; format: in vivo, human; conditions: patients on TM
Description: as §3, §2

## [SH-].[SH-].[S]=[Mo]=[S] [TM, Tetrathiomolybdate]
[1]
  induction of copper depletion: effective at inducing copper depletion
  patients maintaining stable disease for at least 90 days: 15 of 40
  tolerability: well-tolerated
[2]; all patients, 95% CI, 74.6-96.8%
  10-month PFS: 85.0%
[2]; first 12 months of study, six patients
  patients who developed recurrence: 15%
[2]; hormone-receptor-positive patients
  10-month PFS: 85.7%
[2]; stage 2 and 3 patients
  10-month PFS: 89.3%
[2]; stage 4 NED patients
  10-month PFS: 75.0%
[2]; triple-negative patients
  10-month PFS: 81.8%
[3]
  time to progression: 20 months
[4]; at 1 year of TM therapy, median baseline 0.0398 (range 0-0.21), range 0-0.18
  median number of EPCs: 0.0363 cells/uL
[4]; majority of patients, when Cp was in the target range
  EPCs relative to baseline: maintained below baseline
[5]
  treatment-related deaths: no treatment-related deaths
[6]
  patients with grade 3 or 4 hematologic toxicity: up to 40%
[7]
  stability when exposed to air: 8 weeks
[8]; 15 patients
  patients unable to be copper depleted: 37.5%
[8]; HER2-positive subtypes
  patients successfully copper depleted: 40-67%
[8]; ITT population, at a median of 4 weeks, median baseline Cp 29.7 mg/dL (range 21 to 47), range 7 to 26
  mean Cp level on TM: 14.2 mg/dL
[8]; copper depleted patients
  mean Cp of copper depleted pts: 13.5 mg/dL
[8]; hormone-receptor subtypes
  patients successfully copper depleted: 38-43%
[8]; non-copper depleted patients
  mean Cp of non-copper depleted patients: 22.3 mg/dL
[8]; range 58 to 100%
  median % of time within target Cp levels during the study: 78%
[8]; those who took at least one dose of TM, target Cp below 17 mg/dL, printed 23/40
  patients effectively copper depleted: 59%
[8]; triple-negative patients
  patients successfully copper depleted: 91%
[9]; non-relapsed patients, decreased from 1870
  mean SDF1: 1811 pg/mL
[9]; patients while on therapy
  change in SDF1, VEGFR2, and C-kit: did not significantly change
[9]; patients who relapsed, increased from 2093
  mean SDF1: 3052 pg/mL
[10]
  median duration of stable disease: 34.5 weeks
[11]; 1 cycle, patient later diagnosed with B12 deficiency
  grade 3 anemia, cycles: 0.2%
[11]; 3 of 39 ITT patients
  patients with dose interruptions, delays, reductions, or omissions due to toxicity: 7.7%
[11]; 6 cycles
  grade 1 peripheral neuropathy, cycles: 1.4%
[11]; 9 patients
  grade ¾ neutropenia, patients: 23.1%
[11]; 13 cycles
  grade ¾ neutropenia, cycles: 3.1%
[11]; 14 patients
  grade ½ anemia, patients: 35.9%
[11]; 23 patients
  grade ½ neutropenia, patients: 59.0%
[11]; 29 cycles
  grade 1 fatigue, cycles: 6.8%
[11]; 50 cycles
  grade ½ anemia, cycles: 11.7%
[11]; 67 of 426 cycles
  grade ½ neutropenia, cycles: 15.7%
[11]; 79 cycles, resolved with a PPI in >90% of patients
  sulfurous eructations, cycles: 18.5%
[11]; 426 cycles in 39 patients, first 12 months
  overall tolerability: well tolerated
[11]; in vivo
  grade 3 or 4 non-hematologic toxicity: no grade 3 or 4 non-hematologic toxicity
  grade 4 anemia: no grade 4 incidences
[11]; managed with dose adjustment alone
  grade 1 or 2 gastrointestinal toxicity (nausea, vomiting or diarrhea): Eight
[12]
  change in HPCs: no significant changes
